Test results: patent US6383543B1, “Process for the extraction of an organic salt from plants, the salt, and other similar salts” (RAD Natural Technologies Ltd., priority 1998, dated 2002)

Assays:
[1] = Antioxidant effect in oil in water emulsions containing soybean oil, TBA test at 50° C.; settings: oil in water emulsion
Protocol: (a) Oil in water emulsions were prepared from soybean oil (10%), Tween 80 (7%), Span 80 (3%), water (80%) and antioxidant (0.1 or 0.02%).

[2] = Antioxidant effect in bulk oil (soybean oil) at 60° C.
Description: A concentrate was first prepared containing 40% lecithin, 40% oil (e.g. soybean oil), 20% propylene glycol and 4% based on the foregoing mixture of 65% (≡2.6% pure) sodium rosmarinate.

[3] = Antioxidant effect in water in oil emulsions from soybean oil, Rancimat (AOM) test at 100° C.; settings: water in oil emulsion
[4] = yes/no; cited from earlier work
[5] = Comparative efficiency: time the antioxidant continues to inhibit oxidation of linoleic acid; format: biochemical; settings: time until antioxidant is consumed and rate of change of absorption at 234 nm reverts to control
Protocol: The method is based on the rate of oxidation of linoleic acid (LA) to its conjugated diene hydroperoxide (Pryor et al., in J. Org. […] A 1% LA aq. emulsion was prepared with 1% Tween 20 and 0.05M sodium phosphate buffer (pH 7.4). A control sample contained 0.025 ml of the LA emulsion+2.87 ml. of the buffer+0.1 ml 0.05M ABAP; a test sample contained 0.05 ml of the LA emulsion+2.7-2.8 ml of the buffer+0.1 ml 0.05M ABAP+0.05-0.1 ml of the sample under test. Absorption at 234 nm is followed for 5 minutes to establish the uninhibited rate of autoxidation. […] The test antioxidant was added and the inhibited reaction was followed until the antioxidant was consumed and the rate of the absorption change at 234 nm reverted to that observed at the outset.

[6] = Solubility; format: physicochemical; settings: for Solubility: lipid or water; for solubility in acetone: b32: essentially 100% acetone
[7] = Antioxidant effect in emulsions containing β-carotene; settings: over a 100 hour time period; 0.1%
Protocol: A model emulsion was then prepared by adding double-distilled water (25 ml) to the residue and diluting to 500 ml with phosphate buffer (pH 7.0). […] […] A control sample contained no antioxidant but instead, 95% ethanol (2 ml).

[8] = Stabilization of ascorbic acid (50% ethanol, 60° C., 24 hours, HPLC); settings: 10 mg/ml ascorbic acid, after 60° C.
Protocol: The experiment was repeated with the addition of 0.035 mg or 0.07 mg sodium rosmarinate.

COc1ccc(O)c(C(C)(C)C)c1 [BHA, butylated hydroxyanisole]
Days until oxidation ([1]; antioxidant 0.02%): 2 days
Days until oxidation ([2]; concentration 0.02%): 4 days
Hours until oxidation ([3]; antioxidant 0.02%): 9.54 h

Cc1cc(C(C)(C)C)c(O)c(C(C)(C)C)c1 [BHT, butylated hydroxytoluene]
Toxicity [4]: yes
Efficiency of 10 μg [5]: 814 h
Solubility [6]: lipid

CCCOC(=O)c1cc(O)c(O)c(O)c1 [PG, propyl gallate]
Toxicity [4]: yes
Efficiency of 10 μg [5]: 500 h
Solubility [6]: lipid

CC(C)(C)c1cc(O)ccc1O [TBHQ, tertiary-butylhydroxyquinone]
Toxicity [4]: yes
Efficiency of 10 μg [5]: 432 h
Solubility [6]: lipid

Cc1c(C)c2c(c(C)c1O)CCC(C)(C(=O)O)O2 (stereo not drawn) [Trolox]
Toxicity [4]: no
Efficiency of 10 μg [5]: 650 h
Solubility [6]: water

O=C1O[C@H]([C@@H](O)CO)C(O)=C1O [Vitamin C, ascorbic acid]
Days until oxidation ([1]; antioxidant 0.1%): 1 days
protection of β-carotene [7]: little protection
Hours until oxidation ([3]; antioxidant 0.1%): 25.20 h

O=C(/C=C/c1ccc(O)c(O)c1)OC(Cc1ccc(O)c(O)c1)C(=O)O (stereo not drawn) [rosmarinic acid]
% ascorbic acid ([8]; +0.035 mg additive): 68%
% ascorbic acid ([8]; +0.07 mg additive): 90%
solubility in acetone [6]: acetone-soluble

O=C(/C=C/c1ccc(O)c(O)c1)O[C@H](Cc1ccc(O)c(O)c1)C(=O)O [sodium rosmarinate]
Toxicity [4]: no
Efficiency of 10 μg [5]: 1413 h
Days until oxidation ([2]; concentration 0.005% (as 0.2% of the concentrate)): 7 days
Days until oxidation ([2]; concentration 0.013% (as 0.5% of the concentrate)): 8 days
solubility in acetone [6]: virtually acetone-insoluble
Solubility [6]: water

Vitamin E
Toxicity [4]: no
Days until oxidation ([1]; antioxidant 0.1%): 1 days
Efficiency of 10 μg [5]: 444 h
Days until oxidation ([2]; concentration 0.06%): 4 days
Solubility [6]: lipid
Hours until oxidation ([3]; antioxidant 0.1%): 9.58 h
